The text below walks through data of the supplement of paper PMC10290057.

Structures are written as SMILES. Values joined by “and” are separate entries in the source; they are usually repeats but may differ in a detail not shown here. Equal values may be shown once. Where a name gives a salt, the structure may show the parent alone.

Assay [1] concerns HCT116. Description: efficacy (fitted maximal change in viability relative to DMSO control); higher = less cytotoxic (negative = loss of viability). To be noted: 48 h.
For assay [2], the system named is HCT116. Description: AC50 cell viability (CellTiter-Glo); higher = less potent. As to conditions: 48 h. Background: ATP-based viability assays read luminescence as a measure of living cells.
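Throughout, for AC50 cell viability (CellTiter-Glo): HCT116 colorectal carcinoma cells screened at five concentrations per compound, luminescent viability scaled between DMSO wells and empty wells on each plate, curves fitted per compound.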
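Throughout, for efficacy (fitted maximal change in viability relative to DMSO control): Luminescence-based viability readout, five doses per compound, normalized against on-plate DMSO and empty-well controls, followed by dose-response curve fitting for every drug.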

In the case of `O=C(c1c(F)ccc(N[S+](=O)([O-])N2CC[C@@H](F)C2)c1F)c1c[nH]c2ncc(-c3cnc(C4CC4)nc3)cc12` [PLX-8394], in assay [1], the efficacy was -51.7%. Further, in assay [2], the AC50 cell viability turned out to be 13.2 µM.
The corresponding values for `Nc1ncnc2c1c(-c1cnc3[nH]ccc3c1)nn2C1CCCC1` [PP-121] are -86.5% and 2.63 µM.
The corresponding values for `CN[S+](=O)([O-])c1ccc2c(c1)/C(=C/c1[nH]c3c(c1CCCN1CCN(C)CC1)CCCC3)C(=O)N2` [PRP01-012] are -103% and 14.8 µM.
The corresponding values for `CCc1ccc(C(=O)Nc2cc(CN3CCN(C)CC3)cc(C(F)(F)F)c2)cc1C#Cc1cnc2ccnn2c1` [PRP003-013] are -100% and 4.68 µM.
On to `COC(C)(C)CCn1nc(Nc2c(C)cccc2C)c2cnc(Nc3ccc(OCCN4CCCC4)c(F)c3)nc21` [PRP003-032], for which the efficacy in assay [1] was -122%. Moreover, the AC50 cell viability in assay [2] is 14.8 µM.
As to `FC(F)(F)c1ccc(Nc2nc(-c3c(C(F)(F)F)nc4ccccn34)cs2)cc1` [PTC-691], the efficacy in assay [1] was -73.4%. This compound also returned an AC50 cell viability in assay [2] of 0.332 µM.
Turning to `CC(C)NCCCn1c(Sc2cc(Cl)cc(Cl)c2)nc2c(N)ncnc21` [PU-WS-13], the efficacy in assay [1] is -82.4%. Further, the AC50 cell viability in assay [2] was 20.9 µM.
Regarding `CCC(C)SSc1ncc[nH]1` (stereo not given) [PX-12], the efficacy in assay [1] was -88.8%. In assay [2], this compound returned an AC50 cell viability of 18.6 µM.
On the same counts, the results for `COC1=CC=C2Nc3cc(Cl)ccc3C(N=C3C=C(CN4CCCC4)C(=O)C(CN4CCCC4)=C3)=C2N1` [PYRONARIDINE TETRAPHOSPHATE] are -76.4% and 9.34 µM.
The corresponding values for `C1=CC2=N/C(=N\c3ccc(OCCN4CCCC4)c(c3)COC/C=C/COCc3cccc2c3)N1` [Pacritinib] are -89.9% and 1.86 µM.
For the compound `CC(=O)C\1=C(/C)C2=CN=C(NC3=CC=C(C=N3)N4CCNCC4)N=C2N(C5CCCC5)C1=O` [Palbociclib], the efficacy in assay [1] is -109%. This compound also showed an AC50 cell viability in assay [2] of 16.6 µM.
The corresponding values for `Cc1[nH]c2ccccc2c1CCNCc1ccc(/C=C/C(=O)NO)cc1` [Panobinostat] are -87.7% and 0.0468 µM.
On the same counts, the results for `COc1ccc(Cc2nccc3cc(OC)c(OC)cc23)cc1OC` [Papaverine hydrochloride] are -61.1% and 4.17 µM.
Take `CCCCc1ccc2[nH]c(NC(=O)OC)nc2c1` [Parbendazole]: the efficacy in assay [1] was -63.1%. The compound also registered an AC50 cell viability in assay [2] of 0.105 µM.
The corresponding values for `[2H]C([2H])([2H])C(O)([C@@H](C)/C=C/[C@@H](C)[C@H]1CC[C@H]2/C(=C/C=C3C[C@@H](O)C[C@H](O)C3)CCC[C@]12C)C([2H])([2H])[2H]` [Paricalcitol-D6 (ABT-358)] are -54% and 18.6 µM.
On the same counts, the results for `ClC1=CC=C(CCCOC/2=N/NC(=O)C(=C2NCC3=CN=CC=C3)/Br)C=C1` [Parogrelil] are -86.2% and 18.6 µM.
As to `C=C1C(=O)O[C@@H]2[C@H]3O[C@]3(C)CC/C=C(\C)CC[C@@H]12` [Parthenolide], in assay [1], the efficacy is -97.4%. Also, in assay [2], the AC50 cell viability was 13.2 µM.
The corresponding values for `C[C@@H]1CN[C@H]2[C@@H](C)[C@@]3(CC[C@H]4[C@@H]5CC[C@@H]6C[C@@H](CC[C@]6(C)[C@H]5C\C4=C(C)\C3)N[S+](C)([O-])=O)O[C@@H]2C1` [Patidegib] are -94.4% and 14.8 µM.
The corresponding values for `Cc1ccc(Nc2nccc(N(C)c3ccc4c(C)n(C)nc4c3)n2)cc1[S+](N)(=O)[O-]` [Pazopanib] are -51.5% and 5.25 µM.
On the same counts, the results for `NC(=O)c1cnc2[nH]ccc2c1NC1C2CC3C[C@H]1CC(O)(C3)C2` (stereo not given in full) [Peficitinib] are -67.2% and 7.42 µM.
In the case of `CCOc1cc2ncc(C#N)c(Nc3ccc(F)c(Cl)c3)c2cc1NC(=O)/C=C/CN(C)C` [Pelitinib], in assay [1], the efficacy is -97.7%. In assay [2], the AC50 cell viability stood at 5.9 µM.
Consider `NC/1=N/C(=O)C2=C([NH]C=C2CCC3=CC=C(C=C3)C(=O)N[C@@H](CCC(O)=O)C(O)=O)N1` [Pemetrexed], for which, in assay [1], the efficacy is -40.7%. In addition, the AC50 cell viability in assay [2] was 0.742 µM.
The corresponding values for `N=C(N)c1ccc(OCCCCCOc2ccc(C(=N)N)cc2)cc1` [Pentamidine isethionate] are -54.5% and 20.9 µM.
On the same counts, the results for `C1CCC(C(CC2CCCCN2)C2CCCCC2)CC1` (stereo not given) [Perhexiline] are -92.2% and 6.61 µM.
As to `Cc1ccc(-n2nc(C(C)(C)C)cc2N/C(O)=N/Cc2cc(F)ccc2Oc2ccc3c(cnn3CCO)c2)cc1` [Pexmetinib], the efficacy in assay [1] is -98.4%. In assay [2], the AC50 cell viability is 10.5 µM.
On the same counts, the results for `N=C(N)NC(=N)NCCc1ccccc1` [Phenformin hydrochloride] are -38.6% and 13.2 µM.
The corresponding values for `CC1=CC=C(C=C1)N(C\C2=N\CCN2)C3=CC=CC(=C3)O` [Phentolamine mesilate] are -60% and 20.9 µM.
On the same counts, the results for `Oc1cc(O)cc(/C=C/c2ccc(O)c(O)c2)c1` [Piceatannol] are -69% and 26.3 µM.
As to `CC\1=C/C=C\C=[N]1[Pt](N)(Cl)Cl` [Picoplatin], the efficacy in assay [1] was -50.8%. Moreover, the AC50 cell viability in assay [2] worked out at 20.9 µM.
On to `COc1cc([C@@H]2c3cc4c(cc3[C@H](O)[C@H]3COC(=O)[C@@H]23)OCO4)cc(OC)c1OC` [Picropodophyllin], for which the efficacy in assay [1] is -56.6%. Besides, the AC50 cell viability in assay [2] is 0.417 µM.
The corresponding values for `C[S+](=O)([O-])N1CCN(Cc2cc3nc(-c4cccc5[nH]ncc45)nc(N4CCOCC4)c3s2)CC1` [Pictilisib] are -78.3% and 3.32 µM.
On the same counts, the results for `COc1ccc(Cl)c(Nc2nc3ccccc3nc2N[S+](=O)([O-])c2cccc(NC(=O)C(C)(C)N)c2)c1` [Pilaralisib] are -39.5% and 16.6 µM.
With `O=C(NC[C@H](O)CO)c1ccncc1Nc1ccc(I)cc1F` [Pimasertib], the efficacy in assay [1] was -44.3%. Further, the AC50 cell viability in assay [2] is 0.118 µM.
The corresponding values for `COC1=CC=C(C=C1)C2=NC3=CC(=CC=C3[NH]2)/C4=N/NC(=O)CC4C` (stereo not given) [Pimobendan] are -48.6% and 9.34 µM.
For `c1ccc(-c2cc(CCC3CCNCC3)c3ccccc3n2)cc1` [Pipequaline], the efficacy in assay [1] is -108%. For the same compound, the AC50 cell viability in assay [2] turned out to be 16.6 µM.
The corresponding values for `O=C(/C=C/C=C/c1ccc2c(c1)OCO2)N1CCCCC1` [Piperine] are -46% and 20.9 µM.
`COc1cccc2c1C(=O)c1c(O)c3c(c(O)c1C2=O)C[C@@](O)(C(=O)CO)C[C@@H]3O[C@H]1C[C@H](N)[C@H](O[C@H]2CCCCO2)[C@H](C)O1` [Pirarubicin]: the efficacy in assay [1] is -90.5% and -67.3%. In addition, in assay [2], the AC50 cell viability was 0.934 µM and 0.468 µM.
On to `O=C([O-])C[C@H](O)C[C@H](O)/C=C/c1c(C2CC2)nc2ccccc2c1-c1ccc(F)cc1` [Pitavastatin calcium], for which, in assay [1], the efficacy was -103%. Besides, in assay [2], the AC50 cell viability came to 14.8 µM.
For `CN1CC/C(CC1)=C3\c4ccccc4CCc2sccc23` [Pizotifen], the efficacy in assay [1] was -73.5%. This compound also returned an AC50 cell viability in assay [2] of 23.5 µM.
The corresponding values for `CC(C)(C)c1[nH]cnc1/C=c1\[nH]c(=O)/c(=C/c2ccccc2)[nH]c1=O` [Plinabulin] are -58.4% and 0.0525 µM.
On the same counts, the results for `Cc1cc(Nc2ncc3c(n2)N(C)C(=O)N(c2cc(NC(=O)c4cccc(C(F)(F)F)c4)ccc2C)C3)n(C)n1` [Pluripotin] are -74% and 0.235 µM.
The corresponding values for `CC[C@@H]([C@H](C)O)N1\N=C/N(C1=O)C2=CC=C(C=C2)N3CCN(CC3)C4=CC=C(OCC5CO[C@@](C5)(C[N]6C=NC=N6)C7=C(F)C=C(F)C=C7)C=C4` (stereo not given in full) [Posaconazole] are -58.4% and 6.61 µM.
On to `C=CC(=O)N1CCC(Oc2cc3c(Nc4ccc(Cl)c(Cl)c4F)ncnc3cc2OC)CC1` [Poziotinib], for which the efficacy in assay [1] is -106%. Besides, the AC50 cell viability in assay [2] was 18.6 µM.
`CCCCc1nc2cc(/C=C/C(=O)NO)ccc2n1CCN(CC)CC` [Pracinostat]: in assay [1], the efficacy was -86.8%. The same compound came in with an AC50 cell viability in assay [2] of 0.372 µM.
The corresponding values for `C#CCC(Cc1cnc2nc(N)nc(N)c2n1)c1ccc(C(=O)N[C@@H](CCC(=O)O)C(=O)O)cc1` (stereo not given in full) [Pralatrexate] are -91.1% and 0.00468 µM.
On the same counts, the results for `COc1ccc(C(=O)c2c(C)n(CCN3CCOCC3)c3ccccc23)cc1` [Pravadoline] are -67.1% and 1.32 µM.
On the same counts, the results for `COc1cccc(OCCCN)c1-c1cc(Nc2cnc(C#N)cn2)n[nH]1` [Prexasertib] are -111% and 3.72 µM.
For `CC(=O)C1CCC2C3CC\C4=C\C(=O)CCC4(C)C3CCC12C` (stereo not given) [Progesterone], in assay [1], the efficacy was -53.8%. This compound returned an AC50 cell viability in assay [2] of 16.6 µM.
The corresponding values for `C[C@@H]1O[C@@H](O[C@@H]2C=C3CC[C@@H]4[C@H](CC[C@]5(C)[C@@H](c6ccc(=O)oc6)CC[C@]45O)[C@@]3(C)CC2)[C@H](O)[C@H](O)[C@H]1O` [Proscillaridin] are -82.5% and 0.00833 µM.
As for `c1ccc2c(Oc3nc(Nc4ccc(N5CCOCC5)cc4)c4ncn(C5CCCCC5)c4n3)cccc2c1` [Purmorphamine], the efficacy in assay [1] is -34.8%. This compound also gave an AC50 cell viability in assay [2] of 11.8 µM.
